According to patent publication US5371081A, “N-substituted phenoxazines for treating multidrug resistant cancer cells” (St. Jude Children's Research Hospital, priority 1993, dated 1994):
Where two headings read alike, the source gives them in different places.

Columns and labels:
[1] = system: GC3 /CL; assay: Cytotoxicity of N-substituted phenoxazines to tumor cells (clonogenic survival); type: cell-based; conditions: Homo sapiens, 168 h, 7 days, 37° C., read-out: IC50 (50% reduction in clonogenic survival)
Experimental: (§1) The KBCh®-8-5 cells were plated in triplicate at a density of 1000 cells per well and GC3 at 3000 cells per well in Falcon 6-well flat-bottom tissue culture plates (Becton Dickinson Co., Lincoln Park, N.J.). After 24 h, incubation medium was replaced with 3 mL of fresh medium containing compounds 1-4 or 10-14 or 18 at concentrations ranging from 1-100 μm (final culture concentration, 0.1% DMSO), and cells were incubated at 37° C. for a further 7 days. The medium was aspirated and cells were washed once with 2 mL of 0.9% saline and dried overnight. Colonies were stained with 1 mL of 0.1% crystal violet followed by washing twice with distilled water and were counted using an automated ARTEK Model 880 colony counter. The IC50 values were determined from concentration-percent-cell-survival curves and were defined as the concentrations of phenoxazines required for 50% reduction in colonies compared to controls.
(§2) ^a IC50 is the concentration required to produce 50% reduction i
(§3) clonogenic survivial of GC3 /Cl and KBCH^R -85 cells under the
(§4) conditions described in Example 23.

[2] = system: KBCh^R -8-5; assay: as above; type: cell-based; conditions: Homo sapiens, 168 h, 7 days, 37° C., read-out: IC50 (50% reduction in clonogenic survival)
Experimental: as §1, §2, §3, §4

[3] = system: GC3 /Cl Cells; assay: Vinca (VCR, VLB) accumulation, anti-MDR activity; type: cell-based; conditions: Homo sapiens, compound 100 μM, 2 h, room temperature, mean of two experiments, SD <10%
[4] = system: KB Ch^R -8-5 Cells; assay: Vinca (VCR, VLB) accumulation, anti-MDR activity; type: cell-based; conditions: Homo sapiens, compound 100 μM, 2 h, room temperature, mean of two experiments, SD <10%
Experimental: The resistance of the KBCh®-8-5 cells was maintained by culturing them with colchicine (10 ng/ml).
Then, 2 mL of cell suspensions (2×10^6) were plated in 35×10 mm style "easy grip" culture dishes (Becton Dickinson Co., Lincoln Park, N.J.). Cells were allowed to attach to plastic overnight at 37° C. Medium was aspirated and cells were washed with (2×2 mL) physiologic tris (PT) buffer. […] VCR (sp.act. 7.1 ci/mmol) or 49.5 nm [^3 H] […] After 2 h of incubation at room temperature, medium was rapidly aspirated to terminate drug accumulation, and monolayers were washed four times with ice-cold PBS (g/L: NaCL 8.0; Na2 HPO4.12H2 O, 2.9; KCl 0.2; KH2 PO4, 0.2) and drained. To each dish, 1 ml of trypsin-EDTA (0.05% trypsin, 0.53 mM EDTA) was added. After 1 minute, monolayers were triturated to give a uniform suspension of cells, and radioactivity in 0.75 ml was determined by scintillation counting. Cell number per dish was determined on 200 μl of suspension using the method of Butler, and amounts of intracellular VCR or VLB were determined.

[5] = system: MDR; conditions: in model systems; cited from earlier work
[6] = system: MDR GC3 /Cl cells; conditions: compared with verapamil; cited from earlier work
[7] = system: KBCh®-8-5 cells; conditions: compared with verapamil; cited from earlier work
[8] = system: GC3 /Cl Cells; assay: Potentiation of cytotoxicity of vincristine and vinblastine; type: cell-based; conditions: Homo sapiens, 168 h
Experimental: (§5) Tumor cells were treated with graded concentrations of VCR and VLB in the absence or presence of nontoxic concentrations of the products of Examples 1, 3, 4 and 18. The plates were then transferred to a CO2 incubator and, after further incubation for 7 days at 37° C., colonies were enumerated as described in Example 23.
(§6) ^a IC50 concentration of modulator

[9] = system: KB Ch^R -8-5 Cells; assay: as above; type: cell-based; conditions: Homo sapiens, 168 h
Experimental: as §5, §6

[10] = system: KBCh®-8-5; assay: Cross-resistance of cell line to VCR and VLB; type: cell-based, human; conditions: KBCh®-8-5, colchicine selected MDR variant
Experimental: (§7) A cloned line of human colon adenocarcinoma, GC3 /Cl^31, which is intrinsically resistant to VCR (≈4-fold relative to KB-3-1), was routinely grown at 37° C. in antibiotic-free RPMI-1640 medium supplemented with 2 mM glutamine and 10% FBS (Hyclone Laboratories, Inc., Logan, Utah) in a humidified atmosphere of 5% CO2 and 95% air. Human epidermoid carcinoma KB-3-1 cells and a colchicine selected MDR variant, KBCh®-8-5, were obtained which was cross-resistant to VCR (45-fold) and VLB (6.3-fold); it was grown in monolayer culture at 37° C. in DMEM with 10% FBS and L-glutamine in a humidified atmosphere of 10% CO2 in air. The resistance of the KBCh®-8-5 cells was maintained by culturing them with colchicine (10 ng/ml).

[11] = system: GC3 /CL; assay: Resistance of cell line to VCR; type: cell-based, human; conditions: relative to KB-3-1
Experimental: as §7

[12] = [3H] VCR 70.4 nm, read-out: Vinca Accumulation, VCR
[13] = [3H] VLB 49.5 nm, read-out: Vinca Accumulation, VLB

Row | SMILES | IC50 [2] [µM] | activity at 100 µM [3, 12] [%] | activity at 100 µM [4, 12] [%] | other results
1 | c1ccc2c(c1)Oc1ccccc1N2CCCCN1CCCCC1 [Compound 12, 10-(4'-N-piperidinobutyl)phenoxazine] | < 10 | 416 | 196 | IC50 [1]: 7 µM
2 | CCN(CC)CC(=O)N1c2ccccc2Oc2ccccc21 [Compound 16, 10-(diethylaminoacetyl)phenoxazine] | – | 160 | 184 | activity at 100 µM [3, 13]: 305%; activity at 100 µM [4, 13]: 953%
3 | OCCN(CCO)CCCCN1c2ccccc2Oc2ccccc21 [Compound 10, 10-(4'-bishydroxyethylaminobutyl) phenoxazine] | < 10 | 382 | 92 | IC50 [1]: 16 µM
4 | ClCCCN1c2ccccc2Oc2ccccc21 [Compound 1, 10-(3'-chloropropyl)-phenoxazine] | 57 | 846 | 454 | IC50 [1]: 83 µM
5 | ClCCCCN1c2ccccc2Oc2ccccc21 [Compound 8, 10-(4'-chlorobutyl)phenoxazine] | – | 317 | 398 | –
6 | OCCN1CCN(CCCCN2c3ccccc3Oc3ccccc32)CC1 [Compound 13, 10-(4'-β-hydroxyethylpiperazinobutyl) phenoxazine] | < 10 | 543 | 91 | IC50 [1]: 7 µM; activity at 100 µM [4, 13]: 188%
7 | OCCN1CCN(CCCN2c3ccccc3Oc3ccccc32)CC1 [Compound 6, 10-(3'-β-hydroxyethylpiperazinopropyl) phenoxazine] | – | 368 | 343 | –
8 | CN1CCN(CCCN2c3ccccc3Sc3ccc(C(F)(F)F)cc32)CC1 [trifluoperazine] | – | – | – | modifying MDR [5]: active in modifying MDR
9 | c1ccc2c(c1)Nc1ccccc1O2 [phenoxazine] | – | – | – | potentiation of uptake of VCR and VLB [6]: to a greater extent than verapamil; potentiation of uptake of VCR and VLB [7]: to a greater extent than verapamil
10 | CCN(CC)CCCN1c2ccccc2Oc2ccccc21 [Compound 2, 10-(3'-diethylaminopropyl)phenoxazine] | 15 | 439 | 546 | –
11 | OCCN(CCO)CCCN1c2ccccc2Oc2ccccc21 [Compound 3, 10-(3'-bishydroxyethylaminopropyl)phenoxazine] | 38 | 464 | 473 | IC50 [1]: 37 µM
12 | CC[C@]1(O)C[C@@H]2CN(CCc3c([nH]c4ccccc34)[C@@](C(=O)OC)(c3cc4c(cc3OC)N(C)[C@H]3[C@@](O)(C(=O)OC)[C@H](OC(C)=O)[C@]5(CC)C=CCN6CC[C@]43[C@@H]65)C2)C1 [VLB] | – | – | – | IC50 ([8]; read-out: IC50 of VLB alone): 0.0074 µM; IC50 ([9]; read-out: IC50 of VLB alone): 0.02 µM; cross-resistance to VLB [10]: 6.3 fold
13 | c1ccc2c(c1)Oc1ccccc1N2CCCN1CCCCC1 [Compound 5, 10-(3'-N-piperidinopropyl)phenoxazine] | – | 282 | 435 | –
14 | O=C(N1c2ccccc2Oc2ccccc21)C(F)(F)F [Compound 21, 10-(trifluoroacetyl)phenoxazine] | – | 230 | 415 | activity at 100 µM [3, 13]: 222%; activity at 100 µM [4, 13]: 827%
15 | O=C(CN1CCOCC1)N1c2ccccc2Oc2ccccc21 [Compound 17, 10-(N-morpholinoacetyl)phenoxazine] | – | 213 | 290 | activity at 100 µM [3, 13]: 298%; activity at 100 µM [4, 13]: 674%
16 | CC[C@]1(O)C[C@H]2CN(CCc3c([nH]c4ccccc34)[C@@](C(=O)OC)(c3cc4c(cc3OC)N(C=O)[C@H]3[C@@](O)(C(=O)OC)[C@H](OC(C)=O)[C@]5(CC)C=CCN6CC[C@]43[C@@H]65)C2)C1 [VCR] | – | – | – | resistance to VCR [11]: ≈ 4 fold; IC50 ([8]; read-out: IC50 of VCR alone): 0.027 µM; IC50 ([9]; read-out: IC50 of VCR alone): 0.032 µM; cross-resistance to VCR [10]: 45 fold
17 | c1ccc2c(c1)Oc1ccccc1N2CCCCN1CCOCC1 [Compound 11, 10-(4'-N-morpholinobutyl)phenoxazine] | 18 | 477 | 702 | IC50 [1]: 27 µM
18 | c1ccc2c(c1)Oc1ccccc1N2CCCN1CCCC1 [Compound 7, 10-(3'-N-pyrrolidinopropyl)phenoxazine] | – | 250 | 408 | –
19 | c1ccc2c(c1)Oc1ccccc1N2CCCCN1CCCC1 [Compound 14, 10-(4'-N-pyrrolidinobutyl)phenoxazine] | < 10 | 412 | 198 | IC50 [1]: 8 µM; activity at 100 µM [4, 13]: 477%
20 | COc1ccc(CCN(C)CCCC(C#N)(c2ccc(OC)c(OC)c2)C(C)C)cc1OC (stereo not shown) [Verapamil] | – | – | – | modifying MDR [5]: active in modifying MDR
21 | c1ccc2c(c1)Oc1ccccc1N2CCCN1CCOCC1 [Compound 4, 10-(3'-N-morpholinopropyl)phenoxazine] | 73 | 634 | 742 | IC50 [1]: 40 µM
22 | O=C(CCl)N1c2ccccc2Oc2ccccc21 [Compound 15, 10-(chloroacetyl)phenoxazine] | – | 171 | 138 | activity at 100 µM [3, 13]: 284%; activity at 100 µM [4, 13]: 236%
23 | O=C(CN1CCN(CCO)CC1)N1c2ccccc2Oc2ccccc21 [Compound 19, 10-(β-hydroxyethylpiperazinoacetyl)phenoxazine] | – | 157 | 280 | activity at 100 µM [3, 13]: 426%; activity at 100 µM [4, 13]: 776%
24 | C=C[C@H]1C[N@@]2CC[C@H]1C[C@@H]2[C@@H](O)c1ccnc2ccc(OC)cc12 [quinidine] | – | – | – | modifying MDR [5]: active in modifying MDR
25 | CCN(CC)CCCCN1c2ccccc2Oc2ccccc21 [Compound 9, 10-(4'-diethylaminobutyl)phenoxazine] | – | 325 | 211 | –
26 | COC(=O)[C@H]1[C@H]2C[C@@H]3c4[nH]c5cc(OC)ccc5c4CCN3C[C@H]2C[C@@H](OC(=O)c2cc(OC)c(OC)c(OC)c2)[C@@H]1OC [reserpine] | – | – | – | modifying MDR [5]: active in modifying MDR
27 | O=C(CN1CCCCC1)N1c2ccccc2Oc2ccccc21 [Compound 18, 10-(N-piperidinoacetyl)phenoxazine] | 73 | 177 | 326 | activity at 100 µM [3, 13]: 446%
28 | O=C(CN1CCCC1)N1c2ccccc2Oc2ccccc21 [Compound 20, 10-(N-pyrrolidinoacetyl)phenoxazine] | – | 151 | 188 | activity at 100 µM [3, 13]: 296%; activity at 100 µM [4, 13]: 776%
